Reference: patent publication US11053226B2, “KRAS G12C inhibitors and methods of using the same” (Amgen Inc., priority 2018, dated 2021)

These molecules were tested against GDP-bound KRAS protein (aa 1-169), containing both G12C and C118A amino acid substitutions (Homo sapiens (Human), UniProt P01116, C118A/G12C) (assay: Coupled Nucleotide Exchange Assay). Conditions: first Coupled Exchange column; compound pre-incubation probably 5 min (rest of head not shown; b435 lists 5 min, 2 hours or 20 hours); read-out: Coupled Exchange IC50.
Sequence of GDP-bound KRAS protein (aa 1-169), containing both G12C and C118A amino acid substitutions (P01116 other isoform, or with tags, fused parts or gaps G12C/C118A): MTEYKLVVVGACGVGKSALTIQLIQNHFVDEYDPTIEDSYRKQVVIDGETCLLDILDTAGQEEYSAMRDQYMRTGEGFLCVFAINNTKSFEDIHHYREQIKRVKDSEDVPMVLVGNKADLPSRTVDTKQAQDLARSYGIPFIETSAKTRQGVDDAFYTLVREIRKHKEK
Assay type: biochemical
Experimental: For compounds in Table 9, the following assay conditions were employed:
Coupled Nucleotide Exchange Assay:
The assay plates were then read on a PerkinElmer EnVision Multilabel Reader, using AlphaScreen® technology, and data were analyzed using a 4-parameter logistic model to calculate IC50 values.

| SMILES | IC50 [µM] |
| --- | --- |
| C=CC(=O)N1CC(NC(=O)Cn2c(C)c(-c3cccnc3OCC(C)C)c3cc(Cl)cc(C)c32)C1 [Example 345] | 4.43 |
| C=CC(=O)N1CC(N(C)C(=O)Cn2c(C)c(-c3cnccc3C3=CCCCC3)c3cc(Cl)cc(C)c32)C1 [Example 337] | 2.02 |
| C=CC(=O)N1CC(NC(=O)Cn2c(C)c(-c3ccccc3C(C)(C)C)c3cc(Cl)ccc32)C1 [Example 318] | 16.2 |
| C=CC(=O)N1CC(NC(=O)Cn2cc(CC(=O)NCC3Cc4ccccc4CN3C)c3cc(Br)ccc32)C1 (stereo not drawn) [Example 331] | 22.4 |
| C=CC(=O)N1CC(NC(=O)Cn2cc(CC(=O)N3CC4CCC3C4)c3cc(Br)ccc32)C1 (stereo not drawn) [Example 333] | 80.1 |
| C=CC(=O)N1CC(NC(=O)Cn2c(C)c(-c3c(OC)cccc3OC)c3cc(Cl)cc(C)c32)C1 [Example 343] | 13.6 |
| C=CC(=O)N1C[C@H](N(C)C(=O)Cn2ccc3cc(Br)ccc32)[C@@H]1C [Example 364] | > 250 |
| C=CC(=O)N1CC(NC(=O)Cn2c(C)c(-c3cnccc3C3=CCCCC3)c3cc(Cl)cc(C)c32)C1 [Example 335] | 0.8 |
| C=CC(=O)N1CC(N(C)C(=O)Cn2ccc3cc(Br)c(C)cc32)C1 [Example 357] | > 250 |
| C=CC(=O)N1CC(N(C)C(=O)Cn2c(C)cc3cc(Br)ccc32)C1 [Example 348] | 235 |
| C=CC(=O)N1CC(CO)(N(C)C(=O)Cn2ccc3cc(Br)ccc32)C1 [Example 354] | > 250 |
| C=CC(=O)N1CC(N(C)C(=O)Cn2c(C)c(-c3cncnc3C(C)C)c3cc(Cl)cc(C)c32)C1 [Example 339] | 2.88 |
| C=CC(=O)N1CC(CO)(NC(=O)Cn2ccc3cc(Br)ccc32)C1 [Example 353] | 182 |
| C=CC(=O)N1C[C@H](NC(=O)Cn2ccc3cc(Br)ccc32)[C@@H]1C [Example 363] | > 250 |
| C=CC(=O)N1CC(C)(N(C)C(=O)Cn2ccc3cc(Br)ccc32)C1 [Example 356] | > 250 |
| C=CC(=O)N1CC(NC(=O)Cn2ccc3c(C)c(Br)ccc32)C1 [Example 349] | > 250 |
| C=CC(=O)N1CC(N(C)C(=O)Cn2ccc3cc(Br)ccc32)C1 [Example 346] | > 250 |
| C=CC(=O)N1CC(N(C)C(=O)Cn2ccc3cc(Cl)ccc32)C1 [Example 358] | > 250 |

Same assay, conditions: read-out: Coupled Exchange IC50 (5 min); 5 min compound pre-incubation

| SMILES | IC50 [µM] |
| --- | --- |
| C=CC(=O)N1CC(NC(=O)Cn2ccc3cc(Br)ccc32)C1 [Example 180] | 201 |
| C=CC(=O)N1CC(NC(=O)Cn2cc(I)c3ccccc32)C1 [Example 212] | > 250 |
| C=CC(=O)N1CC(NC(=O)Cn2ccc3cc(Br)c(C)cc32)C1 [Example 186] | > 250 |
| C=CC(=O)N1CC(NC(=O)Cn2ccc3cc(Cl)ccc32)C1 [Example 187] | > 250 |
| C=CC(=O)N1CC(NC(=O)Cn2cc(C)c3cc(Br)ccc32)C1 [Example 194] | 151 |
| C=CC(=O)N1CC(NC(=O)Cn2cc(I)c3cc(C(F)(F)F)ccc32)C1 [Example 257] | 64.7 |

Same assay, conditions: read-out: Coupled Exchange IC50 (2 h); 2 h compound pre-incubation

| SMILES | IC50 [µM] |
| --- | --- |
| C=CC(=O)N1CC(NC(=O)Cn2cc(-c3cccc(C(C)C)c3)c3cc(Br)cc(C)c32)C1 [Example 268] | 6.81 |
| C=CC(=O)N1CC(NC(=O)Cn2ccc3ccc(Br)cc32)C1 [Example 182] | > 250 |
| C=CC(=O)N1CC(NC(=O)Cn2ccc3cc(Br)ccc32)C1 [Example 180] | > 250 |
| C=CC(=O)N1CC(NC(=O)Cn2cc(C(C)(O)C(=O)NCc3ccccc3)c3cc(Br)ccc32)C1 (stereo not drawn) [Example 253] | 19.4 |
| C=CC(=O)N1CC(NC(=O)Cn2c3c(c4cc(Br)ccc42)CCNC3)C1 [Example 250] | 89.4 |
| C=CC(=O)N1CC(NC(=O)Cn2cc(I)c3ccccc32)C1 [Example 212] | 27.4 |
| C=CC(=O)N1CC(NC(=O)Cn2c(C(=O)NCCc3ccccc3)cc3cc(Br)ccc32)C1 [Example 189] | 15.6 |
| C=CC(=O)N1CC(NC(=O)Cn2cc(-c3ccc(F)cc3F)c3cc(-c4ccc(F)cc4F)ccc32)C1 [Example 210] | > 250 |
| C=CC(=O)N1CC(NC(=O)Cn2c3c(c4cc(Br)ccc42)CCN(Cc2ccccc2)C3)C1 [Example 239] | > 250 |
| C=CC(=O)N1CC(NC(=O)CN2Cc3c(n(C(C)=O)c4ccc(Br)cc34)C2)C1 [Example 242] | > 250 |
| C=CC(=O)N1CC(NC(=O)Cn2ccc3cc(Br)c(C)cc32)C1 [Example 186] | 26.6 |
| C=CC(=O)N1CC(NC(=O)Cn2ccc3cc(Cl)ccc32)C1 [Example 187] | > 250 |
| C=CC(=O)N1CC(NC(=O)Cn2cc(C)c3cc(Br)ccc32)C1 [Example 194] | 30.1 |
| C=CC(=O)N1CC(NC(=O)Cn2cc(I)c3cc(C(F)(F)F)ccc32)C1 [Example 257] | 9.12 |

Same assay, conditions: read-out: Coupled Exchange IC50 (20 h); 20 h compound pre-incubation

| SMILES | IC50 [µM] |
| --- | --- |
| C=CC(=O)N1CC(NC(=O)Cn2cc(-c3cccc(C(C)C)c3)c3cc(Br)cc(C)c32)C1 [Example 268] | 1.62 |
| C=CC(=O)N1CC(NC(=O)Cn2ccc3ccc(Br)cc32)C1 [Example 182] | > 250 |
| C=CC(=O)N1CC(NC(=O)Cn2ccc3cc(Br)ccc32)C1 [Example 180] | 5.5 |
| C=CC(=O)N1CC(NC(=O)Cn2cc(C(C)(O)C(=O)NCc3ccccc3)c3cc(Br)ccc32)C1 (stereo not drawn) [Example 253] | 2.31 |
| C=CC(=O)N1CC(NC(=O)Cn2c3c(c4cc(Br)ccc42)CCNC3)C1 [Example 250] | 5.69 |
| C=CC(=O)N1CC(NC(=O)Cn2cc(I)c3ccccc32)C1 [Example 212] | 6.8 |
| C=CC(=O)N1CC(NC(=O)Cn2c(C(=O)NCCc3ccccc3)cc3cc(Br)ccc32)C1 [Example 189] | 1.62 |
| C=CC(=O)N1CC(NC(=O)Cn2cc(-c3ccc(F)cc3F)c3cc(-c4ccc(F)cc4F)ccc32)C1 [Example 210] | 10.9 |
| C=CC(=O)N1CC(NC(=O)Cn2c3c(c4cc(Br)ccc42)CCN(Cc2ccccc2)C3)C1 [Example 239] | 44 |
| C=CC(=O)N1CC(NC(=O)CN2Cc3c(n(C(C)=O)c4ccc(Br)cc34)C2)C1 [Example 242] | 7.66 |
| C=CC(=O)N1CC(NC(=O)Cn2ccc3cc(Br)c(C)cc32)C1 [Example 186] | 4.47 |
| C=CC(=O)N1CC(NC(=O)Cn2ccc3cc(Cl)ccc32)C1 [Example 187] | 7.27 |
| C=CC(=O)N1CC(NC(=O)Cn2cc(C)c3cc(Br)ccc32)C1 [Example 194] | 2.23 |
| C=CC(=O)N1CC(NC(=O)Cn2cc(I)c3cc(C(F)(F)F)ccc32)C1 [Example 257] | 0.97 |

Same assay, conditions: second Coupled Exchange column; read-out: Coupled Exchange IC50

| SMILES | IC50 [µM] |
| --- | --- |
| C=CC(=O)N1CC(NC(=O)Cn2c(C)c(-c3ccccc3C(C)(C)C)c3cc(Cl)ccc32)C1 [Example 318] | 98.9 |

Same assay, conditions: third Coupled Exchange column; compound pre-incubation probably 20 hours (rest of head not shown; b435 lists 5 min, 2 hours or 20 hours); read-out: Coupled Exchange IC50

| SMILES | IC50 [µM] |
| --- | --- |
| C=CC(=O)N1C[C@H](N(C)C(=O)Cn2ccc3cc(Br)ccc32)[C@@H]1C [Example 364] | 8.14 |
| C=CC(=O)N1CC(N(C)C(=O)Cn2ccc3cc(Br)c(C)cc32)C1 [Example 357] | 6.78 |
| C=CC(=O)N1CC(N(C)C(=O)Cn2c(C)cc3cc(Br)ccc32)C1 [Example 348] | 1.22 |
| C=CC(=O)N1CC(CO)(N(C)C(=O)Cn2ccc3cc(Br)ccc32)C1 [Example 354] | > 62.5 |
| C=CC(=O)N1CC(CO)(NC(=O)Cn2ccc3cc(Br)ccc32)C1 [Example 353] | 92.6 |
| C=CC(=O)N1C[C@H](NC(=O)Cn2ccc3cc(Br)ccc32)[C@@H]1C [Example 363] | 2.22 |
| C=CC(=O)N1CC(C)(N(C)C(=O)Cn2ccc3cc(Br)ccc32)C1 [Example 356] | > 31.3 |
| C=CC(=O)N1CC(NC(=O)Cn2ccc3c(C)c(Br)ccc32)C1 [Example 349] | 3.21 |
| C=CC(=O)N1CC(N(C)C(=O)Cn2ccc3cc(Br)ccc32)C1 [Example 346] | 2.73 |
| C=CC(=O)N1CC(N(C)C(=O)Cn2ccc3cc(Cl)ccc32)C1 [Example 358] | 3.2 |
